The results in this text go back to patent US5416222A, “3-pyrrolidine methanamines wherein the alpha-carbon is substituted by 1 or 2 lower alkyl groups which are intermediates for pyridone-carboxylic acid derivatives” (Daiichi Seiyaku Co., Ltd., priority 1985, dated 1995).

Values after ≈ are worked out from the molar mass of the structure shown. Where only a bound is given, the exact number is not on record here.

Common to all, as to assay: antimicrobial activity, MIC, standard process of Japan Society of Chemotherapy
Format in all cases: cell-based

The test system of assay [1] is S. aureus, 209P. Particulars: for MIC: Staphylococcus aureus, read-out: minimum growth inhibitory concentration (MIC). The method, then:
(§1) The antimicrobial activities of the compounds of the present invention were determined according to a standard process designated by the Japan Society of Chemotherapy and the minimum growth inhibitory concentrations (MIC) (μg/ml) the compounds were determined.

The test system of assay [2] is Ps. maltophilia, IID1275. As to conditions: for minimum growth inhibitory concentration (MIC): Ps. maltophilia; for MIC: Stenotrophomonas maltophilia, IID1275, Ps. maltophilia, read-out: minimum growth inhibitory concentration (MIC). The method, then: as §1
Assay [3] relates to Ps. cepacia, IID1340. Particulars: for minimum growth inhibitory concentration (MIC): Ps. cepacia; for MIC: Burkholderia cepacia, IID1340, Ps. cepacia, read-out: minimum growth inhibitory concentration (MIC). The method, then:
as §1

The subject of assay [4] is Str. pyogenes, G-36. As to conditions: for minimum growth inhibitory concentration (MIC): Str. pyogenes; for MIC: Streptococcus pyogenes, G36, Str. pyogenes, read-out: minimum growth inhibitory concentration (MIC). The method, then: as §1
Assay [5] deals with Sh. flexneri, 2a5503. As to conditions: for MIC: Shigella flexneri, read-out: minimum growth inhibitory concentration (MIC). The method, then: as §1
Assay [6] concerns Ps. aeruginosa, 2063. Particulars: for minimum growth inhibitory concentration (MIC): Ps. aeruginosa; for MIC: Pseudomonas aeruginosa, 2063, Ps. aeruginosa, read-out: minimum growth inhibitory concentration (MIC). The method, then:
as §1

The test system of assay [7] is Str. faecalis, ATCC 19433. As to conditions: for minimum growth inhibitory concentration (MIC): Str. faecalis; for MIC: Enterococcus faecalis, ATCC19433, Str. faecalis, read-out: minimum growth inhibitory concentration (MIC). The method, then: as §1
In assay [8] the test system is Ser. marcescens, 13001. As to conditions: for minimum growth inhibitory concentration (MIC): Ser. marcescens; for MIC: Serratia marcescens, 13001, Ser. marcescens, read-out: minimum growth inhibitory concentration (MIC). The method, then:
as §1

For assay [9], the system named is Pr. mirabilis, IF03849. As to conditions: for minimum growth inhibitory concentration (MIC): Pr. mirabilis; for MIC: Proteus mirabilis, IF03849, Pr. mirabilis, read-out: minimum growth inhibitory concentration (MIC). The method, then: as §1
The subject of assay [10] is S. epidermidis, 56500. As to conditions: for minimum growth inhibitory concentration (MIC): S. epidermidis; for MIC: Staphylococcus epidermidis, 56500, S. epidermidis, read-out: minimum growth inhibitory concentration (MIC). The method, then: as §1
For assay [11], the system named is E. coli, NIHJ. Particulars: for MIC: Escherichia coli, read-out: minimum growth inhibitory concentration (MIC). The method, then:
as §1

Assay [12] concerns Ps. aeruginosa, 2128. As to conditions: for minimum growth inhibitory concentration (MIC): Ps. aeruginosa; for MIC: Pseudomonas aeruginosa, 2128, Ps. aeruginosa, read-out: minimum growth inhibitory concentration (MIC). The method, then:
as §1

The test system of assay [13] is Pr. vulgaris, 3167. Particulars: for minimum growth inhibitory concentration (MIC): Pr. vulgaris; for MIC: Proteus vulgaris, 3167, Pr. vulgaris, read-out: minimum growth inhibitory concentration (MIC). The method, then:
as §1

For the compound `CC(N)C1CCN(c2nc3c(cc2F)c(=O)c(C(=O)O)cn3C2CC2)C1` (stereo not shown) [Example 19], the “minimum growth inhibitory concentration (MIC)” value is not above 0.05 µg/mL in [1]; 0.20 µg/mL in assay [2]; 0.39 µg/mL in assay [3]; 0.20 µg/mL in [4]; not above 0.05 µg/mL in [5]; 0.20 µg/mL in [6]. Besides, the “minimum growth inhibitory concentration (MIC)” value in assay [7] is 0.10 µg/mL; in [8] it was not above 0.05 µg/mL; in assay [9], 0.10 µg/mL; in assay [10] it was not above 0.05 µg/mL; in assay [11], not above 0.05 µg/mL; in [12] it was not above 0.05 µg/mL. For the same compound, the “minimum growth inhibitory concentration (MIC)” value in assay [13] is not above 0.05 µg/mL.
As for `CNC(C)C1CCN(c2c(F)cc3c(=O)c(C(=O)O)cn(C4CC4)c3c2F)C1` (single isomer, unassigned) [Example 6, 1-Cyclopropyl-6,8-difluoro-1,4-dihydro-7-[3-(1-methylaminoethyl)-1-pyrrolidinyl]-4-oxoquinoline-3-carboxylic acid], the MIC is not above 0.05 µg/mL in [1]; 0.2 µg/mL (≈ 0.511 µM) in assay [2]; 0.78 µg/mL (≈ 1.99 µM) in assay [3]; not above 0.05 µg/mL in assay [5]; 0.39 µg/mL (≈ 0.996 µM) in assay [6]; 0.2 µg/mL (≈ 0.511 µM) in [8]. For the same compound, the MIC in assay [10] was 0.1 µg/mL (≈ 0.255 µM); in assay [11] it was not above 0.05 µg/mL; in [12], 0.2 µg/mL (≈ 0.511 µM); in [13], 0.1 µg/mL (≈ 0.255 µM). In addition, the “minimum growth inhibitory concentration (MIC)” value in assay [4], in assay [7] and in assay [9] was 0.20 µg/mL in each case.
Take `CCC(N)C1CCN(c2c(F)cc3c(=O)c(C(=O)O)cn(C4CC4)c3c2F)C1` (stereo not shown) [Example 9, 7-[3-(1-Aminopropyl)-1-pyrrolidinyl]-1-cyclopropyl-6,8-difluoro-1,4-dihydro-4-oxoquinoline-3-carboxylic acid]: the MIC in assay [1] is not above 0.05 µg/mL; in assay [2], 0.1 µg/mL (≈ 0.255 µM); in assay [3], 0.39 µg/mL (≈ 0.996 µM); in assay [5], not above 0.05 µg/mL; in assay [6], 0.78 µg/mL (≈ 1.99 µM); in assay [7], 0.1 µg/mL (≈ 0.255 µM). The MIC was not above 0.05 µg/mL in assay [8]; 0.1 µg/mL (≈ 0.255 µM) in [9]; not above 0.05 µg/mL in [10]; not above 0.05 µg/mL in assay [11]; 0.2 µg/mL (≈ 0.511 µM) in assay [12]; not above 0.05 µg/mL in assay [13]. For the same compound, the “minimum growth inhibitory concentration (MIC)” value in assay [4] was not above 0.05 µg/mL.
With “1-Cyclopropyl-6,8-difluoro-1,4-dihydro-7-[3-(2S)-pyrrolidinyl)-1-pyrrolidinyl)-1-pyrrolidinyl]-4-oxoquinoline-3-carboxylic acid [Example 17]”, the “minimum growth inhibitory concentration (MIC)” value was not above 0.05 µg/mL in assay [1]; 0.39 µg/mL in assay [2]; 0.78 µg/mL in assay [3]; 0.10 µg/mL in assay [4]; not above 0.05 µg/mL in assay [5]; 0.39 µg/mL in assay [6]. The “minimum growth inhibitory concentration (MIC)” value was 0.10 µg/mL in assay [7]; 0.10 µg/mL in [8]; 0.20 µg/mL in assay [9]; 0.10 µg/mL in assay [10]; not above 0.05 µg/mL in assay [11]; 0.20 µg/mL in assay [12]. The “minimum growth inhibitory concentration (MIC)” value in [13] turned out to be 0.10 µg/mL.
On to `CC(N)C1CCN(c2nc3c(cc2F)c(=O)c(C(=O)O)cn3C2CC2)C1` (stereo not shown) [Example 5, 7-[3-(1-Aminoethyl)-1-pyrrolidinyl]-1-cyclopropyl-6-fluoro-1,4-dihydro-4-oxo-1,8-naphthyridine-3-carboxylic acid], for which the MIC is not above 0.05 µg/mL in [1]; 0.39 µg/mL (≈ 1.08 µM) in assay [2]; 0.39 µg/mL (≈ 1.08 µM) in assay [4]; not above 0.05 µg/mL in assay [5]; 0.2 µg/mL (≈ 0.555 µM) in [7]; not above 0.05 µg/mL in assay [10]. Besides, the MIC in [11] is not above 0.05 µg/mL; in [13], 0.05 µg/mL (≈ 0.139 µM). The “minimum growth inhibitory concentration (MIC)” value in assay [3] is 1.56 µg/mL; in assay [6], 0.78 µg/mL; in assay [8] it was 0.20 µg/mL; in [9] it was 0.39 µg/mL; in assay [12] it was 6.20 µg/mL.
As to `CCC(N)C1CCN(c2c(F)cc3c(=O)c(C(=O)O)cn(CC)c3c2F)C1` (single isomer, unassigned) [Example 20, 1-ethyl-6,8-difluoro-7-[3-(1-aminopropyl)-1-pyrrolidinyl]-1,4-dihydro-4-oxoquinoline-3-carboxylic acid], the MIC in [1] was not above 0.05 µg/mL; in assay [2] it was 0.2 µg/mL (≈ 0.527 µM); in assay [3], 0.39 µg/mL (≈ 1.03 µM); in assay [4], not above 0.05 µg/mL; in assay [5], not above 0.05 µg/mL; in assay [6] it was 0.39 µg/mL (≈ 1.03 µM). Besides, the MIC in [7] is not above 0.05 µg/mL; in assay [8] it was 0.1 µg/mL (≈ 0.264 µM); in [9], 0.1 µg/mL (≈ 0.264 µM); in assay [10], not above 0.05 µg/mL; in assay [11], not above 0.05 µg/mL; in [12], 0.2 µg/mL (≈ 0.527 µM). In assay [13], the MIC was not above 0.05 µg/mL.
Turning to `CNC(C)C1CCN(c2nc3c(cc2F)c(=O)c(C(=O)O)cn3C2CC2)C1` (stereo not shown) [Example 8], the MIC in assay [1] was 0.1 µg/mL (≈ 0.267 µM); in [2], 0.78 µg/mL (≈ 2.08 µM); in assay [3], 1.56 µg/mL (≈ 4.17 µM); in [4], 0.78 µg/mL (≈ 2.08 µM); in assay [5] it was not above 0.05 µg/mL; in assay [6] it was 1.56 µg/mL (≈ 4.17 µM). Also, the MIC is 0.39 µg/mL (≈ 1.04 µM) in assay [7]; 0.39 µg/mL (≈ 1.04 µM) in assay [8]; 0.39 µg/mL (≈ 1.04 µM) in assay [9]; 0.2 µg/mL (≈ 0.534 µM) in assay [10]; not above 0.05 µg/mL in assay [11]; 0.39 µg/mL (≈ 1.04 µM) in assay [12]. The MIC in assay [13] was 0.1 µg/mL (≈ 0.267 µM).
As to `CC(N)C1CCN(c2c(F)cc3c(=O)c(C(=O)O)cn(C4CC4)c3c2F)C1` (single isomer, unassigned) [Example 1, 7-[3-(1-Aminoethyl)-1-pyrrolidinyl]-1-cyclopropyl-6,8-difluoro-1,4-dihydro-4-oxoquinoline-3-carboxylic acid], the MIC was 0.1 µg/mL (≈ 0.265 µM) in assay [1]; 0.2 µg/mL (≈ 0.53 µM) in assay [2]; 0.78 µg/mL (≈ 2.07 µM) in [3]; 0.1 µg/mL (≈ 0.265 µM) in assay [4]; not above 0.05 µg/mL in [5]; 0.1 µg/mL (≈ 0.265 µM) in [7]. Further, the MIC in [9] was 0.1 µg/mL (≈ 0.265 µM); in [10], 0.1 µg/mL (≈ 0.265 µM); in assay [11] it was not above 0.05 µg/mL; in assay [13] it was 0.1 µg/mL (≈ 0.265 µM). Also, the “minimum growth inhibitory concentration (MIC)” value in assay [6] was determined as 0.78 µg/mL; in assay [8] it was 0.20 µg/mL; in assay [12], 0.20 µg/mL.
Turning to `CCn1cc(C(=O)O)c(=O)c2cc(F)c(N3CCC(C(C)(C)N)C3)c(F)c21` (stereo not shown) [Example 12, 7-[3-(1-amino-1-methyl)ethyl-1-pyrrolidinyl]-1-ethyl-6,8-difluoro-1,4-dihydro-4-oxoquinoline-3-carboxylic acid], the MIC in assay [1] was not above 0.05 µg/mL; in assay [2], 0.39 µg/mL (≈ 1.03 µM); in assay [3] it was 1.56 µg/mL (≈ 4.11 µM); in [4], 0.1 µg/mL (≈ 0.264 µM); in assay [5], not above 0.05 µg/mL; in assay [6], 1.56 µg/mL (≈ 4.11 µM). Moreover, the MIC was 0.1 µg/mL (≈ 0.264 µM) in assay [7]; 0.39 µg/mL (≈ 1.03 µM) in assay [8]; 0.39 µg/mL (≈ 1.03 µM) in [9]; 0.1 µg/mL (≈ 0.264 µM) in [10]; not above 0.05 µg/mL in assay [11]; 0.39 µg/mL (≈ 1.03 µM) in assay [12]. Also, the MIC in assay [13] was found to be 0.2 µg/mL (≈ 0.527 µM).
In the case of `CNC(C)(C)C1CCN(c2c(F)cc3c(=O)c(C(=O)O)cn(C4CC4)c3c2F)C1` (stereo not shown) [Example 14, 1-Cyclopropyl-6,8-difluoro-1,4-dihydro-7-[3-(1-methyl-1-methylamino)ethyl-1-pyrrolidinyl]-4-oxoquinoline-3-carboxylic acid], the MIC in assay [1] is 0.2 µg/mL (≈ 0.493 µM); in assay [2], 0.39 µg/mL (≈ 0.962 µM); in [3] it was 1.56 µg/mL (≈ 3.85 µM); in [4], 0.1 µg/mL (≈ 0.247 µM); in assay [5], not above 0.05 µg/mL; in assay [6], 3.13 µg/mL (≈ 7.72 µM). The MIC in assay [7] is 0.1 µg/mL (≈ 0.247 µM); in [8], 0.39 µg/mL (≈ 0.962 µM); in [9], 0.2 µg/mL (≈ 0.493 µM); in assay [10] it was 0.2 µg/mL (≈ 0.493 µM); in assay [11] it was not above 0.05 µg/mL; in assay [12], 0.39 µg/mL (≈ 0.962 µM). Further, the MIC in [13] came to 0.2 µg/mL (≈ 0.493 µM).
